Measurements: ChEMBL document CHEMBL4823271, “Synthesis and structure-activity relationship of new chalcone linked 5-phenyl-3-isoxazolecarboxylic acid methyl esters potentially active against drug resistant Mycobacterium tuberculosis” (Eur J Med Chem, 2021)
Converted amounts (≈) assume the structure as drawn.

Assays:
Format in all cases: functional
[1] = test system: Mycobacterium tuberculosis; assay: Antimycobacterial activity against isoniazid-resistant Mycobacterium tuberculosis H37Rv ATCC 35822 assessed as inhibition of bacterial growth incubated for 48 hrs by broth microdilution assay
[2] = test system: Mycobacterium tuberculosis; assay: Antimycobacterial activity against ethambutol-resistant Mycobacterium tuberculosis H37Rv ATCC 35837 assessed as inhibition of bacterial growth incubated for 48 hrs by broth microdilution assay
[3] = test system: Mycobacterium tuberculosis; assay: Antimycobacterial activity against Streptomycin-resistant Mycobacterium tuberculosis H37Rv ATCC 35820 assessed as inhibition of bacterial growth incubated for 48 hrs by broth microdilution assay
[4] = test system: Mycobacterium tuberculosis; assay: Antimycobacterial activity against rifampicin-resistant Mycobacterium tuberculosis H37Rv ATCC 35838 assessed as inhibition of bacterial growth incubated for 48 hrs by broth microdilution assay

With `COC(=O)c1cc(-c2cccc(NC(=O)c3ccc(/C=C/C(=O)c4ccccc4C)cc3)c2)on1` as the compound, how does the MIC [1] read?
Its MIC is 1 µg/mL (≈ 2.14 µM).

What about the MIC [2] of the same compound?
Its MIC is 0.12 µg/mL (≈ 0.257 µM).

What about the MIC [3] of the same compound?
Its MIC is 2 µg/mL (≈ 4.29 µM).

And the MIC [4]?
Its MIC is 0.25 µg/mL (≈ 0.536 µM).

For `CCCOc1ccc(C(=O)/C=C/c2ccc(C(=O)Nc3cccc(-c4cc(C(=O)OC)no4)c3)cc2)cc1`, which MIC [1] is on record?
Its MIC is 0.12 µg/mL (≈ 0.235 µM).

What about the MIC [2] of the same compound?
The MIC was 0.06 µg/mL (≈ 0.118 µM).

What about the MIC [3] of the same compound?
The MIC was 2 µg/mL (≈ 3.92 µM).

What about the MIC [4] of the same compound?
Its MIC is 0.03 µg/mL (≈ 0.0588 µM).

With `COC(=O)c1cc(-c2cccc(NC(=O)c3ccc(/C=C/C(=O)c4ccc(CC(C)C)cc4)cc3)c2)on1` as the compound, how does the MIC [1] read?
The MIC was > 64 µg/mL.

And the MIC [2]?
The MIC was > 64 µg/mL.

What about the MIC [3] of the same compound?
The MIC was 1 µg/mL (≈ 1.97 µM).

What about the MIC [4] of the same compound?
Its MIC is 16 µg/mL (≈ 31.5 µM).

What does the source list for `COC(=O)c1cc(-c2cccc(NC(=O)c3ccc(/C=C/C(=O)c4ccc(F)cc4F)cc3)c2)on1`?
MIC [1]: 1 µg/mL (≈ 2.05 µM); MIC [2]: 0.12 µg/mL (≈ 0.246 µM); MIC [3]: 2 µg/mL (≈ 4.09 µM); MIC [4]: 0.25 µg/mL (≈ 0.512 µM)

Which MIC [1] does the source give for `COC(=O)c1cc(-c2cccc(NC(=O)c3ccc(/C=C/C(=O)c4ccc(N5CCOCC5)cc4)cc3)c2)on1` here?
The MIC was 0.12 µg/mL (≈ 0.223 µM).

What about the MIC [2] of the same compound?
Its MIC is 0.12 µg/mL (≈ 0.223 µM).

What about the MIC [3] of the same compound?
The MIC was 2 µg/mL (≈ 3.72 µM).

What about the MIC [4] of the same compound?
The MIC was 0.12 µg/mL (≈ 0.223 µM).

Which MIC [1] does the source give for `COC(=O)c1cc(-c2cccc(NC(=O)c3ccc(/C=C/C(=O)c4ccc(C)cc4)cc3)c2)on1` here?
The MIC was 0.5 µg/mL (≈ 1.07 µM).

And the MIC [2]?
The MIC was > 64 µg/mL.

What about the MIC [3] of the same compound?
Its MIC is 0.25 µg/mL (≈ 0.536 µM).

What about the MIC [4] of the same compound?
The MIC was > 64 µg/mL.

For `COC(=O)c1cc(-c2cccc(NC(=O)c3ccc(/C=C/C(=O)c4ccc(Cl)cc4)cc3)c2)on1`, which MIC [1] is on record?
The MIC was > 64 µg/mL.

What about the MIC [2] of the same compound?
Its MIC is > 64 µg/mL.

What about the MIC [3] of the same compound?
Its MIC is 2 µg/mL (≈ 4.11 µM).

What about the MIC [4] of the same compound?
Its MIC is 2 µg/mL (≈ 4.11 µM).

For `CCOC(=O)c1cc(-c2cccc(NC(=O)c3ccc(/C=C/C(=O)c4ccc(Cl)cc4)cc3)c2)on1`, which MIC [1] is on record?
Its MIC is 32 µg/mL (≈ 63.9 µM).

And the MIC [2]?
Its MIC is 4 µg/mL (≈ 7.99 µM).

And the MIC [3]?
Its MIC is 64 µg/mL (≈ 128 µM).

What about the MIC [4] of the same compound?
The MIC was 0.5 µg/mL (≈ 0.998 µM).

What does the source list for `COC(=O)c1cc(-c2cccc(NC(=O)c3ccc(/C=C/C(=O)c4ccc(OC)cc4OC)cc3)c2)on1`?
MIC [1]: 2 µg/mL (≈ 3.9 µM); MIC [2]: 0.25 µg/mL (≈ 0.488 µM); MIC [3]: 2 µg/mL (≈ 3.9 µM); MIC [4]: 0.25 µg/mL (≈ 0.488 µM)

`COC(=O)c1cc(-c2cccc(NC(=O)c3ccc(/C=C/C(=O)c4ccccc4Cl)cc3)c2)on1` was tested. Which MIC [1] did it give?
The MIC was 1 µg/mL (≈ 2.05 µM).

What about the MIC [2] of the same compound?
Its MIC is 0.25 µg/mL (≈ 0.513 µM).

What about the MIC [3] of the same compound?
The MIC was 0.5 µg/mL (≈ 1.03 µM).

What about the MIC [4] of the same compound?
Its MIC is 0.25 µg/mL (≈ 0.513 µM).

`COC(=O)c1cc(-c2cccc(NC(=O)c3ccc(/C=C/C(=O)c4cccc(Cl)c4)cc3)c2)on1` was tested. Which MIC [1] did it give?
Its MIC is 0.5 µg/mL (≈ 1.03 µM).

And the MIC [2]?
The MIC was 0.12 µg/mL (≈ 0.246 µM).

And the MIC [3]?
The MIC was 0.5 µg/mL (≈ 1.03 µM).

And the MIC [4]?
The MIC was 0.5 µg/mL (≈ 1.03 µM).

Which results are given for `COC(=O)c1cc(-c2cccc(NC(=O)c3ccc(/C=C/C(=O)c4ccc(Cl)cc4Cl)cc3)c2)on1`?
MIC [1]: > 64 µg/mL; MIC [2]: > 64 µg/mL; MIC [3]: 1 µg/mL (≈ 1.92 µM); MIC [4]: 64 µg/mL (≈ 123 µM)

How did the MIC [1] turn out when `CCOc1ccc(C(=O)/C=C/c2ccc(C(=O)Nc3cccc(-c4cc(C(=O)OC)no4)c3)cc2)cc1` was run?
Its MIC is 0.5 µg/mL (≈ 1.01 µM).

And the MIC [2]?
Its MIC is 0.06 µg/mL (≈ 0.121 µM).

What about the MIC [3] of the same compound?
The MIC was 0.5 µg/mL (≈ 1.01 µM).

And the MIC [4]?
Its MIC is 0.03 µg/mL (≈ 0.0604 µM).

Which results are given for `COC(=O)c1cc(-c2ccc(NC(=O)c3ccc(/C=C/C(=O)c4ccc(Cl)cc4)cc3)cc2)on1`?
MIC [1]: 0.5 µg/mL (≈ 1.03 µM); MIC [2]: 0.25 µg/mL (≈ 0.513 µM); MIC [3]: 8 µg/mL (≈ 16.4 µM); MIC [4]: 0.5 µg/mL (≈ 1.03 µM)

Which results are given for `CCOC(=O)c1cc(/C=C/c2c(Cl)cncc2Cl)on1`?
MIC [1]: 4 µg/mL (≈ 12.8 µM); MIC [2]: 8 µg/mL (≈ 25.5 µM); MIC [3]: 8 µg/mL (≈ 25.5 µM); MIC [4]: 1 µg/mL (≈ 3.19 µM)

For `CC[C@@H](CO)NCCN[C@@H](CC)CO` [ETHAMBUTOL], which MIC [1] is on record?
Its MIC is 4 µg/mL (≈ 19.6 µM).

And the MIC [2]?
The MIC was 32 µg/mL (≈ 157 µM).

And the MIC [3]?
Its MIC is 1 µg/mL (≈ 4.89 µM).

What about the MIC [4] of the same compound?
The MIC was 1 µg/mL (≈ 4.89 µM).

How did the MIC [1] turn out when `NNC(=O)c1ccncc1` [ISONIAZID] was run?
The MIC was > 64 µg/mL.

What about the MIC [2] of the same compound?
Its MIC is 0.03 µg/mL (≈ 0.219 µM).

What about the MIC [3] of the same compound?
The MIC was 0.03 µg/mL (≈ 0.219 µM).

What about the MIC [4] of the same compound?
Its MIC is 0.03 µg/mL (≈ 0.219 µM).

How did the MIC [1] turn out when `CO[C@H]1/C=C/O[C@@]2(C)Oc3c(C)c(O)c4c(O)c(c(/C=N/N5CCN(C)CC5)c(O)c4c3C2=O)NC(=O)/C(C)=C\C=C\[C@H](C)[C@H](O)[C@@H](C)[C@@H](O)[C@@H](C)[C@H](OC(C)=O)[C@@H]1C` [RIFAMPIN] was run?
The MIC was 0.03 µg/mL (≈ 0.0365 µM).

And the MIC [2]?
The MIC was 0.03 µg/mL (≈ 0.0365 µM).

And the MIC [3]?
The MIC was 0.03 µg/mL (≈ 0.0365 µM).

What about the MIC [4] of the same compound?
Its MIC is 64 µg/mL (≈ 77.8 µM).

Which MIC [1] does the source give for `CN[C@@H]1[C@H](O[C@H]2[C@H](O[C@H]3[C@H](O)[C@@H](O)[C@H](N=C(N)N)[C@@H](O)[C@@H]3N=C(N)N)O[C@@H](C)[C@]2(O)C=O)O[C@@H](CO)[C@H](O)[C@H]1O` [STREPTOMYCIN] here?
Its MIC is 1 µg/mL (≈ 1.72 µM).

What about the MIC [2] of the same compound?
The MIC was 2 µg/mL (≈ 3.44 µM).

What about the MIC [3] of the same compound?
The MIC was > 64 µg/mL.

What about the MIC [4] of the same compound?
Its MIC is 1 µg/mL (≈ 1.72 µM).
